According to BindingDB's records for doi:10.1021/acs.jmedchem.6b01270 (University of Tennessee Health Science Center, 2017):

Assay: Inhibition of ATX (unknown origin) expressed in human A2058 cells assessed as inhibition of LPC-induced cell invasion after 20 hrs by calcein-AM dye based matrigel-mediated Boyden chamber assay

Row | IC50 [µM] | SMILES
1 | 0.528 | O=C(Nc1ccc(F)c(F)c1)c1cc(S(=O)(=O)N2CCOCC2)c(Cl)cc1Cl
2 | 0.74 | O=C(Nc1cc(F)c(Cl)c(F)c1)c1cc(S(=O)(=O)N2CCOCC2)c(Cl)cc1Cl
3 | 0.403 | O=S(=O)(c1cc(C(=S)Nc2cc(F)c(F)c(F)c2)c(Cl)cc1Cl)N1CCOCC1
